For assay [1], the system named is SK-Mel-1. As to the kind of experiment: Cell proliferation IC50 (Cell Titer Glo). It is filed as cell-based. The settings on record: Homo sapiens, read-out: IC50 cell proliferation. How it is done: (§1) IC50 Cell proliferation measurements. Cell proliferation was assessed in the 41 tumor cell lines set forth in Table 2 after 4 days of continuous exposure to either the ERK1/2 inhibitor, compound a or the MEK inhibitor compound b (PD0325901) using Promega Cell Titer Glo reagent (Promega Corp, Madison, Wis.). Promega's CellTiter-Glo™ Luminescent Cell Viability Assay is a sensitive method for assaying cell proliferation using a stable form of luciferase to measure ATP as an indicator of viable cells. This reagent allows a homogeneous method of determining cell number by quantitation of ATP. The luciferase luminescent signal produced is proportional to the number of viable cells present in culture.
(§2) A 1000× compound dose response curve, containing 8 dilutions of each compound, was prepared on a 96-well plate. Compounds were diluted in 100% DMSO to the following (1000×) concentrations: compound b: 1000 μM, 333 μM, 111 μM, 37 μM, 12 μM, 4.1 μM, 1.4 μM and 0.5 μM; compound a: 3000 μM, 1000 μM, 333 μM, 111 μM, 37 μM, 12 μM, 4.1 μM and 1.4 μM. This compound source plate was sealed and kept frozen between uses.
(§3) Cells were grown in RPMI 1640 medium supplemented with 10% Fetal Bovine Serum, 2 mM Glutamine and non-essential amino acids or DMEM/F12 Media containing the same supplements. On day zero, cells were trypsinized, counted and plated into wells of a 96-well Wallac TC Isoplate (Perkin-Elmer Wallac, Gaithersburg, Md.) at a density of 1500-2000 cells per well in 50 μl of complete media. An additional 6-8 replicate well of the cells at the same density were plated on a separate Wallac TC Isoplate. This plate was developed on day 1 to determine the cell-growth baseline.
(§4) On day 1 of treatment, compound was diluted to 2× in media and immediately added to the cells as follows: one ml of media was added to each well of a deep-well 96-well plate and 2 μl of 1000× compound was added with mixing to make 2× compound in media. 50 μl of the media containing 2× compound was added to the cell plates in duplicate points so the final concentrations for each well were as outlined in Table 1. The plates were then returned to a 37° C. incubator and left undisturbed for 4 days. The day 1 (baseline) plates were developed by first adding 50 μl media (without compound) to bring the volume in each well to 100 μl, then adding 100 μl of Cell Titer Glo reagent (as below).
(§5) After four days of treatment, the plates were developed with Cell Titer Glo (CTG) reagent (Promega Corp.; Madison, Wis.). Reagent was reconstituted as described in the product insert. 100 μl of reagent was added to all treatment and control wells and the plates were gently shaken for 5 minutes then incubated an additional 5 minutes before reading in an Analyst AD (Molecular Devices Corporation; Sunnyvale, Calif.) using the Luminescence settings.
(§6) Data was analyzed in Excel using XLfit 4.2, fit model #205 (Dose Response One Site)
A general note: ATP-based viability assays read luminescence as a measure of living cells.

For assay [2], the system named is BHT 101. Put plainly: Cell proliferation IC50 (Cell Titer Glo). It is filed as cell-based. The settings on record: Homo sapiens, read-out: IC50 cell proliferation. How it is done:
as §1, §2, §3, §4, §5, §6

The test system of assay [3] is H716. As to the kind of experiment: Cell proliferation IC50 (Cell Titer Glo). It is filed as cell-based. The settings on record: Homo sapiens, NCI-H716, 96 h, read-out: IC50 cell proliferation. The method, then:
as §1, §2, §3, §4, §5, §6

In assay [4] the test system is Malme 3M. As to the kind of experiment: Cell proliferation IC50 (Cell Titer Glo). The settings on record: Homo sapiens, 96 h, read-out: IC50 cell proliferation. Type of assay: cell-based. How it is done: as §1, §2, §3, §4, §5, §6
The test system of assay [5] is A673. Put plainly: Cell proliferation IC50 (Cell Titer Glo). It is filed as cell-based. The settings on record: Homo sapiens, read-out: IC50 cell proliferation. How it is done: as §1, §2, §3, §4, §5, §6
Assay [6] has as its system U-937. As to the kind of experiment: Cell proliferation IC50 (Cell Titer Glo). The settings on record: Homo sapiens, read-out: IC50 cell proliferation. Type of assay: cell-based. The method, then:
as §1, §2, §3, §4, §5, §6

Assay [7] concerns KG-1. Put plainly: Cell proliferation IC50 (Cell Titer Glo). Type of assay: cell-based. The following applies: Homo sapiens, read-out: IC50 cell proliferation. How it is done: as §1, §2, §3, §4, §5, §6
Assay [8] relates to Cell lines with either the heterozygote V600E BRAF mutation or wild type BRAF genotype. Put plainly: Cell proliferation IC50 (Cell Titer Glo), summary by genotype. It is filed as cell-based. The following applies: Homo sapiens, read-out: IC50 cell proliferation. The method, then: as §1, §2, §3
(§7) On day 1 of treatment, compound was diluted to 2× in media and immediately added to the cells as follows: one ml of media was added to each well of a deep-well 96-well plate and 2 μl of 1000× compound was added with mixing to make 2× compound in media. 50 μl of the media containing 2× compound was added to the cell plates in duplicate points so the final concentrations for each well were as outlined in Table 1. The plates were then returned to a 37° C. incubator and left undisturbed for 4 days. […]
(§8) After four days of treatment, the plates were developed with Cell Titer Glo (CTG) reagent (Promega Corp.; Madison, Wis.). […] 100 μl of reagent was added to all treatment and control wells and the plates were gently shaken for 5 minutes then incubated an additional 5 minutes before reading in an Analyst AD (Molecular Devices Corporation; Sunnyvale, Calif.) using the Luminescence settings.
as §6

For assay [9], the system named is V600E BRAF homozygous genotype cell lines. The description is as above. The settings on record: Homo sapiens, read-out: IC50 cell proliferation. Type of assay: cell-based. The method, then:
as §1, §2, §3, §7, §8, §6

Assay [10] relates to WM-266-4. As to the kind of experiment: Cell proliferation IC50 (Cell Titer Glo). It is filed as cell-based, human. The settings on record: 4 days continuous exposure. The method, then: as §1, §2, §3, §4, §5, §6

pIC50: −log10 of the molar value. Read-outs that look alike come from different tables or passages of the source.

`O=C(Nc1ccc2[nH]nc(-c3ccncc3)c2c1)C1CCN(CC(=O)N2CCN(c3ccc(-c4ncccn4)cc3)CC2)C1` (centres unmarked) [cpd. a]: the pIC50 in assay [1] (96 h, SK-Mel-1, Melanoma, BRAF V600E Heterozygous, 4 days continuous exposure) is 7.43; in assay [2] (96 h, BHT 101, Thyroid, BRAF V600E Heterozygous, 4 days continuous exposure), 6.52; in assay [3] (H716, Colon, BRAF V600V Wild type, 4 days continuous exposure), 6.48; in [4] (Malme 3M, Melanoma, BRAF V600E Homozygous, 4 days continuous exposure), 8.00; in assay [5] (96 h, A673, Rhabdomyosarcoma, BRAF V600E Heterozygous, 4 days continuous exposure), less than 5.52; in assay [6] (96 h, U-937, Leukemia, BRAF V600V Wild type, 4 days continuous exposure) it was less than 5.52. Besides, the pIC50 in [7] (96 h, KG-1, Leukemia, BRAF V600V Wild type, 4 days continuous exposure) was 6.05; in assay [8] (25 of the 32 cell lines tested (heterozygote V600E or wild type BRAF)), less than 7.00; in [9] (nine of the nine V600E BRAF homozygous genotype cell lines tested), greater than 7.00.

For the molecule `O=C(NOC[C@H](O)CO)c1ccc(F)c(F)c1Nc1ccc(I)cc1F` [cpd. b, PD0325901], the pIC50 was 8.52 in [1] (SK-MEL-1, 96 h); 8.00 in [2] (BHT-101, 96 h); 6.79 in assay [3]; 8.00 in [4] (Malme-3M); 6.00 in [5] (A673, 96 h); 6.00 in [6] (U-937, 96 h). Also, the pIC50 in [7] (KG-1, 96 h) was 7.40; in [10] (Homo sapiens, WM 266-4, 96 h, read-out: IC50 cell proliferation, WM-266-4, Melanoma, BRAF V600D Heterozygous) it was greater than 8.00; in assay [10] (read-out: IC50 cell proliferation, WM-266-4, Melanoma, BRAF V600D Heterozygous), 8.00; in assay [8], less than 8.00; in assay [9], no less than 8.00.
